Experimental findings from patent publication US9872840B2, “Effect of garcinol in delaying the progression of diabetic nephropathy” (Delhi Institute of Pharmaceutical Sciences and Research, priority 2013, dated 2018) are described below.

Assay [1] has as its system STZ diabetic rats. As to the kind of experiment: Fasting and post prandial blood glucose in STZ diabetic rats. Set-up: Reduction of post prandial glucose: concentration or dose not given beside the values. Format: in vivo, rat. The procedure: The Garcinol used for the experimental studies was bought from Sami Labs, Hyderabad. It was administered at the dose of 200 mg/kg dispersed in water with 1% CMC. Further, the experimental procedures were conducted according to the Institutional Animal Ethical Committee (protocol no. DIPSAR/IAEC/2009/01) and CPCSEA guidelines. All rats were housed under conventional conditions with controlled temperature, humidity and light (12 hours light-dark cycle), and were provided with a standard commercial diet and water (ad libitum). Healthy albino rats of Wistar strain were kept for breeding. Diabetes was induced by administration of streptozotocin (STZ, 90 mg/kg, i.p.) to a group of 2 day old pups. Age-matched control rats were given an equal volume of vehicle and considered as ‘Normal’ group of rats. Six weeks after injection, the blood glucose level was measured from the tail vein. Rats with a fasting blood glucose level over 160 mg/dl were considered as diabetic.
After 6 weeks, four groups of animals, each comprising of 8 animals were made. The groups were assigned to receive vehicle or garcinol (200 mg/kg dispersed in 1% CMC); Olmesartan (6 mg/kg/day) and Glimepiride (1 mg/kg/day) once daily for 8 weeks. After the final drug administration, body weight was measured and blood samples were collected in both fasting and post prandial conditions. The kidney of treated and untreated animals were isolated and fixed in 10% buffered formalin solution to prepare paraffin sections.
However, the decrease was less than antidiabetic reference glimepiride treatment (˜27%). Moreover, the reduction of post prandial glucose with garcinol treatment (˜36%) was more than olmesartan (˜10%) but was lower than observed with glimepiride treatment (almost 43%) when compared to diabetic group.

For assay [2], the system named is STZ diabetic rats. Description: Homeostatic model assessment (HOMA-Index, β-cell function) in STZ diabetic rats. The format is in vivo, rat. Conditions: STZ diabetic rats after treatment; mean ± S.E.M., five animals. The text has this:
The homeostatic model assessment (HOMA) is a method used to quantify insulin resistance and beta-cell function (Homeostasis model assessment: insulin resistance and beta-cell function from fasting plasma glucose and insulin concentrations in man. Diabetologia 28: 412-9.). The approximating equation for insulin resistance, in the early model, used a fasting plasma sample, and was derived by use of the insulin-glucose product, divided by a constant. HOMA-IR=(Glucose×Insulin)/405;HOMA-% B=([…])/(Glucose-63)
Where IR is insulin resistance and % B is the β-cell function where Glucose is given in mg/dl and Insulin is given in μU/mL (both during fasting). Garcinol inhibited insulin resistance assessed by HOMA-Index with significance when compared with the diabetic group.

A further assay deals with rat nephrin. Description: Immunohistochemistry for nephrin in kidney. The format is in vivo. The conditions noted are these: kidney of STZ diabetic rats, 8 weeks; garcinol 200 mg/kg, olmesartan 6 mg/kg, glimepiride 1 mg/kg. The procedure: Immunohistochemistry was done as previously described according to a modified method using a Polyclonal (C-Terminus) Antibody which is identical to rat nephrin. These experiments were done using 4 micron […] kidney sections, as previously reported. Paraffin-embedded tissues sections were deparaffinized in microwave oven for 3 minutes. The sections were rehydrated in graded series of xylene and alcohols. Endogenous peroxidase activity was blocked by 3% hydrogen peroxide in distilled water for 15 minutes. Antigen retrieval was achieved by steam heating in a solution of citrate buffer, pH 6.0 for 30 minutes. Sections were blocked with 10% normal goat serum for polyclonal antibodies. Sections were then incubated for one hour with primary antibody Polyclonal (C-Terminus) Antibody which is identical to rat nephrin. The sections were then incubated in avidin-biotin complex at 1:25 dilution for 30 min at room temperature and developed using diaminobenzidine (DAB) as chromogen. After washing, the sections were counter-stained with hematoxylin and coverslipped. Negative controls were carried out by incubation in the absence of the primary antibody. The quantification of nephrin was done using point counting technique for each animal as described in established method. Davis B J, Johnston C I, Burrell, L M, Burns W C, Kubota E, Cao Z, Cooper M E, Allen T J. Renoprotective effects of vasopeptidase inhibition in an experimental model of diabetic nephropathy. Diabetologia. 2003; 46(7): 961-71.

[3] abbreviates: baseline before treatment, mean ± S.E.M., eight animals.
Setting [4] is: once daily for 8 weeks, garcinol 200 mg/kg, olmesartan 6 mg/kg/day, glimepiride 1 mg/kg/day, mean ± S.E.M., eight animals.

The structures appear in SMILES notation.

For the molecule `CCC1=C(C)CN(C(=O)NCCc2ccc(S(=O)(=O)NC(=O)N[C@H]3CC[C@H](C)CC3)cc2)C1=O` [Glimepiride, glimepiride], in the assay on STZ diabetic rats [1] (8 weeks treatment), the “Reduction of fasting blood glucose” value was about 27%. Further, the “Reduction of post prandial glucose” value in the assay on STZ diabetic rats [1] (8 weeks treatment, compared to diabetic group) is on record as about 43%. In the assay on STZ diabetic rats [1] (setting [3]), the “Blood glucose, fasting, before treatment” value is 165.2 ± 1.5 mg/dL and the “Blood glucose, post prandial, before treatment” value is 308 ± 4.98 mg/dL. Further, in the assay with STZ diabetic rats [1] (setting [4]), the “Blood glucose, fasting, after treatment” value was 119.2 ± 5.4 mg/dL and the “Blood glucose, post prandial, after treatment” value was found to be 174 ± 3.75 mg/dL. Also, in the assay with STZ diabetic rats [2], the “% BETA-CELL FUNCTION” value is reported as 35.6 ± 5.24 and the HOMA-INDEX is recorded as 1.53 ± 0.144. In addition, the Nephrin with rat nephrin amounted to 20 % FA.
